According to patent publication US6528655B1, “Aromatic derivatives with HIV integrase inhibitory properties” (Pharmacor, Inc., priority 2000, dated 2003):
Like-named read-outs stand apart in the source and are kept apart here.

Biological target: HIV-1 integrase (Human immunodeficiency virus type 1 group M subtype B, UniProt P04585)
Assay: HIV-1 integrase inhibition assay (radiolabeled duplex substrate corresponding to the U5 end of the HIV LTR)
Type: biochemical
Protocol: For the purpose of Table 1 to 4, the HIV-1 integrase inhibition assay was carried out following a known procedure (Burke, Jr. T. R. et al., J. Med. Chem. 38, 4171-4178 (1995)). A suitable radiolabeled duplex substrate corresponding to the U5 end of the HIV LTR was used.
For the purposes of Table 1 to 4 the HIV-1 integrase inhibition assay was based on a known procedure (Hazuda, D. J. et al., Nucleic Acids Res. 22 1121-1122 (1994)).

[1] = Table 2, compounds of formula III′, read-out: IC50

`CC(C)(C)OC[C@H](NC(=O)c1cc(O)c(O)c(O)c1)C(=O)NCCc1ccc(O)c(O)c1` [Example 43, N-[Nα-(3,4,5-Trihydroxybenzoyl)-O-tert-butyl-L-seryl]dopamine] showed an IC50 of 152 nM.
With `COc1ccc(OC)c(C=CC(=O)N[C@@H](COC(C)(C)C)C(=O)NCCc2ccc(O)c(O)c2)c1` [Example 44, N-[Nα-(2,5-Dimethoxycinnamoyl)-O-tert-butyl-L-seryl]dopamine] the IC50 was > 10000 nM.
Compound `O=C(N[C@@H](CO)C(=O)NCCc1ccc(O)c(O)c1)c1cc(O)c(O)c(O)c1` [Example 45, N-[Nα-(3,4,5-Trihydroxybenzoyl)-L-seryl]dopamine] has an IC50 of 446 nM.
`COc1ccc(OC)c(C=CC(=O)N[C@@H](CO)C(=O)NCCc2ccc(O)c(O)c2)c1` [Example 46, N-[Nα-(2,5-Dimethoxycinnamoyl)-L-seryl]dopamine] was tested, and the IC50 was > 10000 nM.
With `Cc1ccc(C(NC(=O)CC[C@H](NC(=O)/C=C/c2ccc(O)c(O)c2)C(=O)NCCc2ccc(O)c(O)c2)(c2ccccc2)c2ccccc2)cc1` [Example 48, N-(Nα-Caffeoyl-Nδ-methyltrityl-L-glutaminyl)dopamine] the IC50 was 1150 nM.
For `Cc1ccc(C(NC(=O)CC[C@H](NC(=O)c2ccc(O)c(O)c2)C(=O)NCCc2ccc(O)c(O)c2)(c2ccccc2)c2ccccc2)cc1` [Example 49, N-[Nα-(3,4-Dihydroxybenzoyl)-Nδ-methyltrityl-L-glutaminyl]dopamine], the IC50 was 1300 nM.
`Cc1ccc(C(NC(=O)CC[C@H](NC(=O)/C=C/c2cccc([N+](=O)[O-])c2)C(=O)NCCc2ccc(O)c(O)c2)(c2ccccc2)c2ccccc2)cc1` [Example 50, N-[Nα-(3-Nitrocinnamoyl)-Nδ-methyltrityl-L-glutaminyl]dopamine] showed an IC50 of 3950 nM.
Compound `O=C(N[C@@H](Cc1cn(C(c2ccccc2)(c2ccccc2)c2ccccc2)cn1)C(=O)NCCc1ccc(O)c(O)c1)c1ccc(O)cc1` [Example 52, N-[Nα-(4-Hydroxybenzoyl)-Nτ-trityl-L-histidinyl]dopamine] has an IC50 of 3300 nM.
`CC(C)(C)OC(=O)NCCC[C@H](NC(=O)c1cc(O)c(O)c(O)c1)C(=O)NCCc1ccc(O)c(O)c1` [Example 54, N-[Nα-(3,4,5-Trihydrozybenzoyl)-Nδ-butoxycarbonyl-L-ornithyl]dopamine] was tested, and the IC50 was 374 nM.
For `O=C(NCCCC[C@H](NC(=O)c1cc2cccc(O)c2cc1O)C(=O)OCc1ccccc1)c1cc2cccc(O)c2cc1O` [Example 55, Nα,Nε-di-(3,5-Dihydroxynaphthyl-2-carbonyl)-L-L-lye Benzyl Ester], the IC50 [1] was > 5000 nM.
Work on `O=C(NCCCC[C@H](NC(=O)c1cc2cccc(O)c2cc1O)C(=O)NO)c1cc2cccc(O)c2cc1O` [Example 56, Nα,Nε-di-(3,5-Dihydroxynaphthyl-2-carbonyl)-L-lysine hydroxylamide] yielded an IC50 of 5300 nM.
`O=C(N[C@@H](Cc1ccc(O)cc1)C(=O)NCCc1ccc(O)c(O)c1)c1cc2cccc(O)c2cc1O` [Example 57, N-[Nα-(3,5-Dihydroxynaphthyl-2-carbonyl)-L-tyrosyl]dopamine] was tested, and the IC50 was 1100 nM.
With `O=C(N[C@@H](Cc1ccc(O)cc1)C(=O)NCCc1ccc(O)c(O)c1)c1cc(O)c2cccc(O)c2n1` [Example 58, N-[Nα-(4,8-Dihydroxyquinoline-2-carbonyl)-L-tyrosyl]dopamine] the IC50 was 1200 nM.
With `O=C(N[C@@H](Cc1c[nH]c2ccccc12)C(=O)NCCc1ccc(O)c(O)c1)c1cc2cccc(O)c2cc1O` [Example 59, N-[Nα-(3,5-Dihydroxynaphthyl-2-carbonyl)-L-tryptophanyl]dopamine] the IC50 was 620 nM.
Work on `O=C(N[C@@H](Cc1ccc(O)c(O)c1)C(=O)NCCc1ccc(O)c(O)c1)c1cc2cccc(O)c2cc1O` [Example 60, N-[Nα-(3,5-Dihydroxynaphthyl-2-carbonyl)-L-3,4-dihydroxyphenylalanyl]dopamine] yielded an IC50 of 1800 nM.
In the case of `NC(=O)C[C@H](NC(=O)c1cc2cccc(O)c2cc1O)C(=O)NCCc1ccc(O)c(O)c1` [Example 61, N-[Nα-(3,5-Dihydroxynaphthyl-2-carbonyl)-L-asparagyl]dopamine], the IC50 is reported as > 5000 nM.
With `CC(C)(C)OC(=O)C[C@H](NC(=O)c1cc(O)c2cccc(O)c2n1)C(=O)NCCc1ccc(O)c(O)c1` [Example 62, N-[Nα-(4,8-Dihydroxyquinoline-2-carbonyl)-Oγ-ted-butyl-L-aspartyl]dopamine] the IC50 was > 5000 nM.
With `O=C(C[C@H](NC(=O)c1cc(O)c2cccc(O)c2n1)C(=O)NCCc1ccc(O)c(O)c1)NC(c1ccccc1)(c1ccccc1)c1ccccc1` [Example 64, N-[Nα-(4,8-Dihydroxyquinoline-2-carbonyl)-Nγ-trityl-L-asparagyl]dopamine] the IC50 was 7100 nM.
For `O=C(NCCCC[C@H](NC(=O)c1cc2cccc(O)c2cc1O)C(=O)NCCc1ccc(O)c(O)c1)c1cc2cccc(O)c2cc1O` [Example 66, N-[Nα,Nε-di-(3,5-Dihydroxynaphthyl-2-carbonyl)-L-lysyl]dopamine], the IC50 was > 5000 nM.
In the case of `NC(=O)C[C@H](NC(=O)c1cc(O)c2cccc(O)c2n1)C(=O)NCCc1ccc(O)c(O)c1` [Example 67, N-[Nα-(4,8-Dihydroxyquinoline-2-carbonyl)-L-asparagyl]dopamine], the IC50 is reported as > 5000 nM.
For `O=C(N[C@@H](Cc1ccc(O)cc1)C(=O)NCc1ccc(O)c(O)c1)c1cc(O)c2cccc(O)c2n1` [Example 68, N-[Nα-(4,8-Dihydroxyquinoline-2-carbonyl)-L-tyrosyl]-3,4-dihydroxybenzylamine], the IC50 was > 5000 nM.
For `Cc1ccc(C(NC(=O)CC[C@H](NC(=O)c2cc(O)c3cccc(O)c3n2)C(=O)NCc2ccc(O)c(O)c2)(c2ccccc2)c2ccccc2)cc1` [Example 69, N-[Nα-(4,8-Dihydroxyquinoline-2-carbonyl)-Nδ-methyltrityl-L-glutaminyl]-3,4-dihydroxybenzylamine], the IC50 was 346 nM.
`O=C(N[C@@H](Cc1cn(C(c2ccccc2)(c2ccccc2)c2ccccc2)cn1)C(=O)NCc1ccc(O)c(O)c1)c1cc(O)c2cccc(O)c2n1` [Example 70, N-[Nα-(4,8-Dihydroxyquinoline-2-carbonyl)-Nτ-trityl-L-histidinyl]-3,4-dihydroxybenzylamine] showed an IC50 of 403 nM.
`Cc1ccc(C(c2ccccc2)(c2ccccc2)n2cnc(C[C@H](NC(=O)c3cc(O)c4cccc(O)c4n3)C(=O)NCCc3ccc(O)c(O)c3)c2)cc1` [Example 71, N-[Nα-(4,8-Dihydroxyquinoline-2-carbonyl)-Nτ-methyltrityl-L-histidinyl]dopamine] gave an IC50 [1] of 607 nM.
`CC(C)(C)OC[C@H](NC(=O)c1cc(O)c2cccc(O)c2n1)C(=O)NCCc1ccc(O)c(O)c1` [Example 72, N-[Nα-(4,8-Dihydroxyquinoline-2-carbonyl)-O-tert-butyl-L-seryl]dopamine] was tested, and the IC50 was > 10000 nM.
`O=C(N[C@@H](Cc1ccc(O)cc1)C(=O)NNC(=O)c1ccccc1O)c1cc(O)c2cccc(O)c2n1` [Example 73, N1-[Nα-(4,8-Dihydroxyquinoline-2-carbonyl)-L-tyrosyl]-N2-(2-hydroxybenzoyl)-hydrazine] showed an IC50 of 2200 nM.
In the case of `O=C(/C=C/c1ccc(O)c(O)c1)N[C@@H](Cc1ccc(O)cc1)C(=O)NNC(=O)c1ccccc1O` [Example 74, N1-(Nα-Caffeoyl-L-tyrosyl)-N2-(2-hydroxybenzoyl)-hydrazine], the IC50 is reported as 820 nM.
In the case of `O=C(/C=C/c1ccc(O)c(O)c1)N[C@@H](Cc1c[nH]c2ccccc12)C(=O)NNC(=O)c1ccccc1O` [Example 75, N1-(Nα-Caffeoyl-L-tryptophanyl)-N2-(2-hydroxybenzoyl)-hydrazine], the IC50 is reported as 1200 nM.
`O=C(/C=C/c1ccc(O)c(O)c1)N[C@@H](Cc1ccc(O)c(O)c1)C(=O)NNC(=O)c1ccccc1O` [Example 76, N1-(Nα-Caffeoyl-L-3,4-dihydroxyphenylalanyl)-N2-(2-hydroxybenzoyl)-hydrazine] was tested, and the IC50 was 383 nM.
`O=C(N[C@@H](Cc1c[nH]c2ccccc12)C(=O)NNC(=O)c1ccccc1O)c1cc(O)c2cccc(O)c2n1` [Example 77, N1-[Nα-(4,8-Dihydroxyquinoline-2-carbonyl)-L-tryptophanyl]-N2-(2-hydroxybenzoyl)-hydrazine] gave an IC50 of 4700 nM.
`O=C(CC[C@H](NC(=O)c1cc(O)c2cccc(O)c2n1)C(=O)NNC(=O)c1ccccc1O)NNC(=O)c1ccccc1O` [Example 78, N1-[Nα-(4,8-Dihydroxyquinoline-2-carbonyl)-L-glutamyl]-N2/Nδ-di-(2-hydroxybenzoyl)-dihydrazine] was tested, and the IC50 (Table 3, compounds of formula IV′, read-out: IC50) was > 9700 nM.
With `CC(C)(C)OC(=O)N[C@@H](Cc1cn(-c2ccc([N+](=O)[O-])cc2[N+](=O)[O-])cn1)C(=O)NNC(=O)c1ccccc1O` [Example 79, N1-[Nα-tert-Butoxycarbonyl-Nτ-(2,4-dinitrophenyl)-L-histidinyl]-N2-(2-hydroxybenzoyl)-hydrazine] the IC50 was > 4000 nM.
With `O=C(C=Cc1ccc(O)c(O)c1)NC(Cc1cn(-c2ccc([N+](=O)[O-])cc2[N+](=O)[O-])cn1)C(=O)NNC(=O)c1ccccc1O` [Example 80, N1-[Nα-Caffeoyl-Nτ-(2,4-dinitrophenyl)-L-histidinyl]-N2-(2-hydroxybenzoyl)-hydrazine] the IC50 was 251 nM.
In the case of `O=C(C=Cc1ccsc1)NC(Cc1cn(-c2ccc([N+](=O)[O-])cc2[N+](=O)[O-])cn1)C(=O)NNC(=O)c1ccccc1O` [Example 81, N1-[Nα-(3-(3′-thiophenyl)acryloyl)-Nτ-(2,4-dinitrophenyl)-L-histidinyl]-N2-(2-hydroxybenzoyl)-hydrazine], the IC50 is reported as > 10000 nM.
Work on `COc1ccc(OC)c(NC(=O)[C@H](CCC(=O)NC(c2ccccc2)(c2ccccc2)c2ccccc2)NC(=O)/C=C/c2ccc(O)c(O)c2)c1` [Example 82, N-(Nα-Caffeoyl-Nδ-trityl-L-glutaminyl)-2,5-dimethoxyaniline] yielded an IC50 of 2550 nM.
Compound `COc1ccc(OC)c(NC(=O)[C@H](CCC(=O)NC(c2ccccc2)(c2ccccc2)c2ccccc2)NC(=O)c2ccc(O)c(O)c2)c1` [Example 83, N-[Nα-(3,4-Dihydroxybenzoyl)-Nδ-trityl-L-glutaminyl]-2,5-dimethoxyaniline] has an IC50 of 2250 nM.
